Data: publication PMC12670400, “LEKTI-Grafted Sunflower Trypsin Inhibitor: A Potential Therapeutic for Skin Diseases” (Journal of Medicinal Chemistry, 2025)
Entries after “also recorded” stand apart in the source; their conditions may differ. Bridge positions count the residues as written; N and C are the ends. Peptide text beside a SMILES is read from it.

Tests used:
[1] = test system: KLK5-mediated PAR2 activation; assay: PAR2-dependent intracellular calcium mobilization assay in N/TERT keratinocytes; assay type: cell-based; settings: 2.5 to 40 μM, rKLK5 10 μM, preincubated one hour, n = 3, listed as lead 7
Description: PAR2, a member of the G-protein-coupled receptor family expressed in keratinocytes, is a known downstream target of KLK5. KLK5 activates PAR2 by cleaving its extracellular N-terminal domain. This cleavage exposes a tethered ligand, which binds PAR2 intramolecularly to activate the receptor. , Activated PAR2 causes protein kinase C (PKC) and inositol 1,4,5-trisphosphate (IP3) activation, leading to calcium release from the endoplasmic reticulum, known as intracellular calcium mobilization. […] This delay is attributed to the time required for KLK5 to enzymatically cleave the extracellular N-terminal domain of PAR2, thereby exposing the tethered ligand sequence necessary to initiate receptor activation and downstream calcium signaling. […] This observation confirmed PAR2-dependent calcium mobilization and that rKLK5 could initiate PAR2 activation. The inhibition potential of lead 7 on KLK5 activity was then assessed by using this assay. rKLK5 was preincubated with lead 7 at concentrations of 2.5, 5, 20, or 40 μM for one hour before being applied to cultured keratinocytes, after which PAR2-dependent calcium mobilization was measured.
For Ki calculation, Km values for KLK5 and its substrate Boc-VPR-AMC were previously reported in the literature 8, 9, allowing the conversion from IC50 to Ki using the Cheng Prusoff equation10 Kᵢ = IC₅₀ / (1 + [S]/Kₘ) for single-site competitive binding.
Cell lines and tissue cultures
Keratinocytes isolated from the skin in a patient with genetic skin disease Netherton Syndrome (NS19) and in healthy donors (C42, C46, P8) were used in the study. […]
The immortalized keratinocyte cell line (N/TERT)13, 14 were used for the assay. […] The cells were counted, and 100 µL of the suspension, at a density of 600,000 cells/mL, was seeded into each well of a 96 -well microplate. […]
calcium signalling. […] Fluorescence excitation was set at 485 nm, and emission was recorded at 520 nm using SpectraMax® i3x plate reader. […]

[2] = test system: endogenous KLK5 of NS keratinocytes; assay: KLK5 protease activity assay for culture medium of NS keratinocytes; assay type: biochemical, human; settings: for KLK5 activity in NS keratinocytes medium after treatment: one hour, n = 3, untreated 51.9 ± 1.6 nmol/g
Protocol: To evaluate the inhibition of lead 7 on endogenous KLK5 activity, media collected from cultured NS keratinocytes and healthy donor keratinocytes were incubated with lead 7 at the final concentration of 100 nM, or 1 μM, or 10 μM for one hour. Media were then concentrated, and KLK5 activity was measured. […] There were significant differences in KLK5 activity before and after treatment (p < 0.05, n = 3). […] This may be because lead 7 exerts inhibitory effects only when KLK5 activity exceeds a certain threshold, which is not reached in keratinocytes from healthy donors. It was noted that the activity of KLK5 in NS was not reduced to the levels observed in normal keratinocytes. Two reasons might be behind this: (i) a higher lead 7 dose may be required, and (ii) the VPR-AMC substrate can be cleaved by a wider range of serine proteases. The remaining noninhibitory activity could be attributed to the presence of other trypsin-like serine proteases secreted in the cultured medium, which can hydrolyze the VPR-AMC substrate but are not inhibited by lead 7. […]
KLK5 protease activity assay for culture medium
Keratinocytes were seeded in 6 well plate with the density of 0.2 × 10⁶ cells per well and cultured in RM+ medium until they reached confluency. The culture media were changed to FBS free-RM+ media, and cells were continuously cultured. 48 hours after the medium changing, the culture media were harvested from the cell culture plates and centrifuged to remove dead cells. A volume of 180 µL of the supernatants was transferred to 1.5 mL Eppendorf tubes, followed by the addition of 20 µL of analogues in 1x PBS at different concentrations. The samples in which 20 µL of 1x PBS instead of the lead 7 were added were as untreated controls. These mixtures were incubated for one hours at 37 degrees Celsius and then processed for precipitation to concentrate the samples using ProteoExtract® Protein Precipitation Kit (Millipore, cat no. 539180). The precipitates were resuspended in 20 µL of 1X PBS (pH 8.0) for protease activity assessment using protease activity assay. 10uL of suspension from each sample was added in 96 well black plate. The enzymatic reaction was initiated by adding 100 µL of Boc-VPR-AMC substrate (final concentration 100 µM) to each well and RFU values in samples were measured. Protease activities were expressed as nmol/g by first converting RFU readings to KLK5 equivalent concentration activity using a KLK5 standard curve, followed by normalization to total protein content

C[C@@H](O)[C@@H]1NC(=O)[C@@H]2CSSC[C@H](NC(=O)[C@H](CCC(=O)O)NC(=O)[C@@H]3CCCN3C(=O)[C@@H]3CCCN3C(=O)[C@H](CC(N)=O)NC(=O)[C@H](CO)NC(=O)[C@H](CCCNC(=N)N)NC1=O)C(=O)N[C@@H](Cc1c[nH]c3ccccc13)C(=O)N1CCC[C@H]1C(=O)N[C@@H](CC(N)=O)C(=O)NCC(=O)N[C@@H](Cc1ccccc1)C(=O)N2 [compound 7] (cyclo(GFCTRSNPPECWPN); disulfide 3-11)
PAR2-dependent calcium mobilization after rKLK5 preincubated with inhibitor [1]: dose-dependent reduction; also recorded: progressive reduction in calcium release
reduction in KLK5 activity, NS keratinocytes ([2]; 100 nM): 14.6%
KLK5 activity in NS keratinocytes medium after treatment ([2]; 100 nM): 44.3 ± 2.7 nmol/g
reduction in KLK5 activity, NS keratinocytes ([2]; 1 μM): 35.5%
KLK5 activity in NS keratinocytes medium after treatment ([2]; 1 μM): 33.5 ± 2.6 nmol/g
reduction in KLK5 activity, NS keratinocytes ([2]; 10 μM): 41.2%
KLK5 activity in NS keratinocytes medium after treatment ([2]; 10 μM): 30.5 ± 1.7 nmol/g
